Source: patent publication US7947834B2, “Substituted quinoxalines, their preparation and their therapeutical use as 11βHSD1 modulators” (Sanofi-Aventis, priority 2006, dated 2011)
Structures can show the parent of a compound that is named as a salt.

Tests used:
[1] = target: T1, recombinant 11β-HSD1 protein (Homo sapiens, UniProt P28845); experiment: 11β-HSD1 SPA (Scintillation Proximity Assay) enzyme inhibition test, 384-well format; assay type: biochemical; settings: 3H-cortisone and NADPH; cortisol formed measured by SPA; read-out: IC50 (concentration which inhibits 50% of the activity of 11β-HSD1)
T1 construct: made in house; host or cells: Saccharomyces cerevisiae
Source text: The compounds according to the invention formed the subject of pharmacological tests which make it possible to determine their inhibiting effect on the 11β-HSD1 enzyme, which is an enzyme which is involved in the metabolism of lipids or the metabolism of glucose.
These tests consisted in measuring the in vitro inhibiting activity of the compounds of the invention by virtue of an SPA (Scintillation Proximity Assay) test in 384-well format. The recombinant 11β-HSD1 protein was produced in the yeast S. cerevisiae. The reaction was carried out by incubating the enzyme in the presence of ^3H-cortisone and of NADPH, in the absence or in the presence of an increasing concentration of inhibitor. SPA beads coupled to an antimouse antibody, which are preincubated with anticortisol antibody, made it possible to measure the amount of cortisol formed during the reaction.
The inhibiting activity with regard to the enzyme 11β-HSD1 is given by the concentration which inhibits 50% of the activity of 11β-HSD1 (IC50).

11βHSD1 in the eyes = target: T2, 11βHSD1 in the eyes (Homo sapiens, UniProt P28845); settings: healthy volunteers, after treating for seven days; cited from earlier work
T2 construct: host or cells: eyes of healthy volunteers (in vivo)
T2 sequence (P28845 whole entry): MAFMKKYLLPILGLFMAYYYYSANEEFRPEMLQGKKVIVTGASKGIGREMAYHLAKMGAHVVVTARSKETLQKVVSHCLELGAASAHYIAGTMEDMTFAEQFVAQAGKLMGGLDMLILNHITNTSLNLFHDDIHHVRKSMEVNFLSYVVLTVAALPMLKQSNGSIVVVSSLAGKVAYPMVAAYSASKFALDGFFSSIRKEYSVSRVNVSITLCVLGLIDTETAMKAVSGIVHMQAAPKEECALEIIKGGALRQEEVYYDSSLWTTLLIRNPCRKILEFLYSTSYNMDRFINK

T1 sequence (P28845 whole entry, species assumed): as the sequence (P28845 whole entry) above

| SMILES | melting point | IC50 [1] | reduction of the intraocular pressure (IOP) (11βHSD1 in the eyes) |
| --- | --- | --- | --- |
| CCCN1CCN(C(=O)N2CCC(c3cccnc3)C2)c2ccccc21 (centres unmarked) (as salt: HCl) [compound 101] | 121 °C |  |  |
| Cl.O=C(N1CCC(c2ccncc2)CC1)N1CCCc2ccccc21 [compound 4, 1-[(4-(Pyridin-4-yl)piperidin-1-yl)carbonyl]-1,2,3,4-tetrahydroquinoline Hydrochloride] | 198 °C | 115 nM |  |
| NC(=O)c1ccc(N2CCN(C(=O)N3CCC(c4cn[nH]c4)C3)c3ccccc32)cn1 (centres unmarked) [compound 188] | 90 °C | 130 nM |  |
| N#Cc1cccc(CN2CCN(C(=O)N3CCC(c4cn[nH]c4)C3)c3ccccc32)c1 (centres unmarked) [compound 162] | 174 °C | 57 nM |  |
| CN(C)C(=O)N1CCN(C(=O)N2CCC(c3cccnc3)C2)c2ccccc21.Cl (centres unmarked) | 181 °C |  |  |
| CC1(C)[C@@H](OC(=O)CCC(=O)O)CC[C@]2(C)[C@H]3C(=O)C=C4[C@@H]5C[C@@](C)(C(=O)O)CC[C@]5(C)CC[C@@]4(C)[C@]3(C)CC[C@@H]12 [carbenoxolone] |  |  | 18% |
| COc1cc(N2CCN(C(=O)N3CCC(c4cn[nH]c4)C3)c3ccccc32)ccc1C(=O)NC1CC1 (centres unmarked) [compound 178, N-Cyclopropyl-2-methoxy-4-{4-[3-(1H-pyrazol-4-yl)pyrrolidine-1-carbonyl]-3,4-dihydro-2H-quinoxalin-1-yl}benzamide] | 100 °C |  |  |
| Cl.O=C(N1CCC(c2cccnc2)C1)N1CCOc2ccccc21 (centres unmarked) | 60 to 90 °C |  |  |
| CCCN1CCN(C(=O)N2CCC(c3cccnc3)C2)c2ccccc21 (centres unmarked) [compound 101] |  | 90 nM |  |
| CS(=O)(=O)c1ccc(CN2CCN(C(=O)N3CCC(c4cn[nH]c4)C3)c3ccccc32)cc1 (centres unmarked) [compound 161, [4-(4-(Methanesulfonyl)benzyl)-3,4-dihydro-2H-quinoxalin-1-yl][3-(1H-pyrazol-4-yl)pyrrolidin-1-yl]methanone] | 239 °C |  |  |
| CCCCN1CCN(C(=O)N2CCC(c3cccnc3)C2)c2ccccc21.Cl (centres unmarked) | 191 °C |  |  |
| CC(=O)N1CCN(C(=O)N2CCC(c3cccnc3)C2)c2ccccc21.Cl (centres unmarked) | 201 °C |  |  |
| O=C(N1CCC2(C=Cc3ccccc32)CC1)N1CCCc2ccccc21 [compound 15, 1′-(3,4-Dihydroquinolin-1(2H)-ylcarbonyl)spiro[indene-1,4′-piperidine]] | 130 to 133 °C |  |  |
| N#CC1(c2ccccc2)CCN(C(=O)N2CCCc3ccccc32)CC1 | 53 to 59 °C |  |  |
| O=C(N1CCC2(CCCc3ccccc32)CC1)N1CCCc2ccccc21 [compound 18] | 52 to 65 °C | 43 nM |  |
| O=C(NN1CCCCC1)c1ccc(N2CCN(C(=O)N3CCC(c4cn[nH]c4)C3)c3ccccc32)cc1 (centres unmarked) [compound 172, N-(Piperidin-1-yl)-4-{4-[3-(1H-pyrazol-4-yl)pyrrolidine-1-carbonyl]-3,4-dihydro-2H-quinoxalin-1-yl}benzamide] | 251 °C |  |  |
| COc1cc(N2CCN(C(=O)N3CCC(c4cn[nH]c4)C3)c3ccccc32)ccc1C(=O)NC1CC1 (centres unmarked) [compound 78] |  | 39 nM |  |
| O=C(N1CCC(c2nc(-c3c(Cl)cccc3Cl)no2)CC1)N1CCCc2ccccc21 [compound 25, 1-({4-[3-(2,6-Dichlorophenyl)-1,2,4-oxadiazol-5-yl]piperidin-1-yl}carbonyl)-1,2,3,4-tetrahydroquinoline] | 63 to 68 °C |  |  |
| Cl.O=C(N1CCC(c2cccnc2)C1)N1CCOc2ccc(CO)cc21 (centres unmarked) | 273 °C |  |  |
